Where only a bound is given, the exact number is not on record here.

Recombinant human HSD17B13 enzyme, sequence (Q7Z5P4 20-300): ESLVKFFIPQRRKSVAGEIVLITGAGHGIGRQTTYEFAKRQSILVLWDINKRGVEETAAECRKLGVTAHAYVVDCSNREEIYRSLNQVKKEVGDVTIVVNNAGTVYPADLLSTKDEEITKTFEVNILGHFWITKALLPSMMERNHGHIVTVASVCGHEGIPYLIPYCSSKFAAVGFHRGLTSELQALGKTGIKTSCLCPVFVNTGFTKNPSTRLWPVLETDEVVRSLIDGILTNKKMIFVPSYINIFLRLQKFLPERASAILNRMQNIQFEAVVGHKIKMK

For the assay, the target named is Recombinant human HSD17B13 enzyme (Homo sapiens (Human), UniProt Q7Z5P4). As to the kind of experiment: HSD17b13 NAD(P)H-Glo Biochemical Assay. Conditions: 50 uM estradiol, 1 mM NAD+; read-out: HSD17β13 IC50. The essentials:
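Luminescent NAD(P)H-Glo detection (1 h, RT) quantified cofactor reduction after a 3 h, 37° C reaction of human HSD17B13 with estradiol (50 uM final) and NAD+ (1 mM final). Compounds were first pre-incubated 20 min at RT with enzyme in Tris pH 7.4 buffer containing Tween-20 and BSA.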
For `Cc1nn(-c2cc(C(F)(F)F)c(F)c(O)c2F)c2cc(F)c(N3CCN(S(C)(=O)=O)CC34CC4)cc12` [Compound 19.100, 2,6-Difluoro-3-(6-fluoro-3-methyl-5-(7-(methylsulfonyl)-4,7-diazaspiro[2.5]octan-4-yl)-1H-indazol-1-yl)-5-(trifluoromethyl)phenol], the IC50 (usually the concentration that gives 50% inhibition) was less than 100 nM.

In the case of `Cc1nn(-c2cc(C(F)(F)F)c(F)c(O)c2F)c2ccc(N(C)C3CCOCC3)c(F)c12` [Compound 19.101, 2,6-Difluoro-3-(4-fluoro-3-methyl-5-(methyl(tetrahydro-2H-pyran-4-yl)amino)-1H-indazol-1-yl)-5-(trifluoromethyl)phenol], the IC50 was in the range of 100 to 1000 nM.

Regarding `Cc1nn(-c2cc(C(F)(F)F)c(F)c(O)c2F)c2cnc(N(C)C3CCOCC3)c(F)c12` [Compound 19.102, 2,6-Difluoro-3-(4-fluoro-3-methyl-5-(methyl(tetrahydro-2H-pyran-4-yl)amino)-1H-pyrazolo[3,4-c]pyridin-1-yl)-5-(trifluoromethyl)phenol], the IC50 lay within 100 to 1000 nM.

Take `Cc1nn(-c2ccc(F)c(O)c2)c2cc(F)c(N3CCN(S(C)(=O)=O)CC34CC4)cc12` [Compound 19.103, 2-Fluoro-5-(6-fluoro-3-methyl-5-(7-(methylsulfonyl)-4,7-diazaspiro[2.5]octan-4-yl)-1H-indazol-1-yl)phenol]: the IC50 fell in the range of 100 to 1000 nM.

As to `Cc1nn(-c2ccc(Cl)c(O)c2F)c2cc(F)c(N3CCN(S(C)(=O)=O)CC34CC4)cc12` [Compound 19.104, 6-Chloro-2-fluoro-3-(6-fluoro-3-methyl-5-(7-(methylsulfonyl)-4,7-diazaspiro[2.5]octan-4-yl)-1H-indazol-1-yl)phenol], the IC50 was less than 100 nM.

With `Cc1nn(-c2cc(C(F)(F)F)c(F)c(O)c2F)c2cnc(N3CCN(S(C)(=O)=O)C4(CCCCC4)C3)cc12` [Compound 19.105, 2,6-Difluoro-3-(3-methyl-5-(1-(methylsulfonyl)-1,4-diazaspiro[5.5]undecan-4-yl)-1H-pyrazolo[3,4-c]pyridin-1-yl)-5-(trifluoromethyl)phenol], the IC50 was less than 100 nM.

Take `CNc1nn(-c2cc(C(F)(F)F)c(F)c(O)c2F)c2ccc(N(C)C3CCOCC3)cc12` [Compound 19.106, 2,6-Difluoro-3-(5-(methyl(tetrahydro-2H-pyran-4-yl)amino)-3-(methylamino)-1H-indazol-1-yl)-5-(trifluoromethyl)phenol]: the half-inhibitory concentration (IC50) fell in the range of 100 to 1000 nM.

Take `Cc1nn(-c2cc(C(F)(F)F)c(F)c(O)c2F)c2cnc(N3CCN(S(C)(=O)=O)CC34CC4)nc12` [Compound 19.107, 2,6-Difluoro-3-(3-methyl-5-(7-(methylsulfonyl)-4,7-diazaspiro[2.5]octan-4-yl)-1H-pyrazolo[4,3-d]pyrimidin-1-yl)-5-(trifluoromethyl)phenol]: the IC50 was less than 100 nM.

Turning to `Cc1nn(-c2cc(C(F)(F)F)c(F)c(O)c2F)c2cnc(N3CCO[C@H](c4ccccc4)C3)cc12` [Compound 19.108, (R)-2,6-Difluoro-3-(3-methyl-5-(2-phenylmorpholino)-1H-pyrazolo[3,4-c]pyridin-1-yl)-5-(trifluoromethyl)phenol], the IC50 is less than 100 nM.

With `Cc1nn(-c2cc(C(F)(F)F)c(F)c(O)c2F)c2cnc(N3CCO[C@@H](c4ccccc4)C3)cc12` [Compound 19.109, (S)-2,6-Difluoro-3-(3-methyl-5-(2-phenylmorpholino)-1H-pyrazolo[3,4-c]pyridin-1-yl)-5-(trifluoromethyl)phenol], the IC50 lay in the range of 100 to 1000 nM.

On to `Cc1nn(-c2cc(C(F)(F)F)c(Cl)c(O)c2F)c2cc(F)c(N3CCN(S(C)(=O)=O)CC34CC4)cc12` [Compound 19.110, 2-Chloro-6-fluoro-5-(6-fluoro-3-methyl-5-(7-(methylsulfonyl)-4,7-diazaspiro[2.5]octan-4-yl)-1H-indazol-1-yl)-3-(trifluoromethyl)phenol], for which the IC50 was less than 100 nM.

These data come from patent US20240034736A1, “HSD17B13 INHIBITORS AND USES THEREOF” (FL2022-001, Inc., priority 2020, published 2024).
